Among the data in PubChem BioAssay (NCI) are TGI and GI50 values, retold here.

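Five compound concentrations were applied to cells in 96-well plates for 48 hours; endpoints were derived by simple linear interpolation of the resulting dose-response curve. Here, GI50 denotes the concentration required for 50% inhibition of growth. The concentration for full growth arrest is given as TGI.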 A value given as a limit tells only on which side of the number the result lay.

Test systems include MDA-N; SK-MEL-2 melanoma; RPMI-8226 leukemia; 786-0 renal; COLO 205 colon; OVCAR-8 ovarian; M14 melanoma; HT29 colon; HOP-92 NSCLC; HCT-15 colon; SR leukemia.
Test in all cases: DTP human tumour cell line panel, 48 h

As to `Cc1c(NC2(C)C(=O)N(/N=C/c3ccccc3)N=C2c2ccccc2)n[nH]c1-c1ccccc1` (stereo not drawn), the TGI in the experiment on MDA-N, with SK-MEL-2 melanoma, in the experiment with RPMI-8226 leukemia, in the experiment with 786-0 renal, with COLO 205 colon and in the experiment with OVCAR-8 ovarian was greater than 100 µM throughout. The concentration for total growth inhibition (TGI) with M14 melanoma, in the experiment with HT29 colon, with HOP-92 NSCLC and in the experiment with HCT-15 colon was greater than 100 µM in each case.
Turning to `COc1cc2c(cc1OC)-c1c3c(cc4c1[C@@H](C2)N(C)CC4)OCO3`, the TGI (commonly the concentration at which net growth stops) came out at 22 µM with SK-MEL-2 melanoma; 22.8 µM with RPMI-8226 leukemia; 32.1 µM in the experiment on COLO 205 colon; 31.9 µM in the experiment with OVCAR-8 ovarian; 28.8 µM with HT29 colon; 32.4 µM in the experiment with HOP-92 NSCLC. In the experiment on HCT-15 colon, the TGI came out at 40.8 µM.
Turning to `CN(C)CCNc1ncnc2nc(-c3ccc4ccccc4c3)[nH]c12`, the TGI in the experiment with MDA-N, in the experiment on SK-MEL-2 melanoma, in the experiment with RPMI-8226 leukemia, in the experiment on 786-0 renal, with COLO 205 colon and in the experiment on SR leukemia was greater than 100 µM each time. The TGI with OVCAR-8 ovarian, with M14 melanoma, with HT29 colon and in the experiment with HCT-15 colon was greater than 100 µM in each case.
Regarding `CC(=O)OCC=C(CCl)CCC(Br)C(C)(C)Br` (mixture of isomers), the TGI in the experiment with MDA-N, in the experiment with SK-MEL-2 melanoma, with RPMI-8226 leukemia, in the experiment on 786-0 renal, in the experiment on COLO 205 colon and with OVCAR-8 ovarian was greater than 10 µM throughout. The TGI in the experiment on M14 melanoma, in the experiment on HT29 colon and in the experiment with HCT-15 colon was greater than 10 µM throughout.
Consider `COc1ccc(C(=O)N2c3ccccc3Sc3ccccc32)c(C(F)(F)F)c1`, for which the GI50 (in general, the concentration giving 50% growth inhibition) with SK-MEL-2 melanoma was 0.677 µM; in the experiment on RPMI-8226 leukemia, 0.595 µM; in the experiment with COLO 205 colon, 0.319 µM; in the experiment with SR leukemia it was 0.312 µM; in the experiment with OVCAR-8 ovarian it was 0.593 µM; in the experiment on M14 melanoma it was 0.343 µM. For the same compound, the GI50 is 0.362 µM in the experiment with HT29 colon, 0.152 µM in the experiment with HOP-92 NSCLC and 0.405 µM with HCT-15 colon. Besides, the TGI with SK-MEL-2 melanoma is greater than 100 µM; in the experiment on RPMI-8226 leukemia, greater than 100 µM; in the experiment on COLO 205 colon, 1.48 µM; in the experiment on SR leukemia, 76.9 µM; with OVCAR-8 ovarian it was greater than 100 µM; with M14 melanoma it was greater than 100 µM. Also, the TGI with HT29 colon was greater than 100 µM; in the experiment with HOP-92 NSCLC, 3.91 µM; in the experiment with HCT-15 colon, greater than 100 µM.
Consider `Nc1cc(N2CCCC2)nc(=O)n1Cc1ccccc1`, for which the TGI with SK-MEL-2 melanoma, in the experiment on RPMI-8226 leukemia, in the experiment on 786-0 renal, in the experiment on COLO 205 colon, in the experiment with SR leukemia and with OVCAR-8 ovarian was greater than 100 µM throughout. In addition, the TGI in the experiment with M14 melanoma, in the experiment on HT29 colon, with HOP-92 NSCLC and with HCT-15 colon was greater than 100 µM in each case.
For the compound `CC1(Cl)CC2C(CC1Sc1nnnn1-c1ccccc1)C2(C)C` (stereo not drawn), the TGI in the experiment on SK-MEL-2 melanoma, with RPMI-8226 leukemia, with COLO 205 colon, in the experiment with SR leukemia, in the experiment on OVCAR-8 ovarian and in the experiment on M14 melanoma was greater than 100 µM throughout. The TGI with HT29 colon, in the experiment on HOP-92 NSCLC and with HCT-15 colon was greater than 100 µM each time.
For the compound `NCCCCNCCCNC(=O)c1nc(-c2csc(CCN)n2)sc1Cl`, the TGI in the experiment on SK-MEL-2 melanoma, with RPMI-8226 leukemia, in the experiment with COLO 205 colon, with SR leukemia, in the experiment on OVCAR-8 ovarian and with M14 melanoma was greater than 100 µM in each case. Also, the TGI in the experiment on HT29 colon, in the experiment on HOP-92 NSCLC and with HCT-15 colon was greater than 100 µM each time.
As for `O=C1C(Br)=C(c2ccccc2)S(=O)c2ccccc21` (stereo not drawn), the concentration for total growth inhibition (TGI) with MDA-N stood at 20.4 µM; in the experiment with SK-MEL-2 melanoma, 33.8 µM; with 786-0 renal it was 7.62 µM; with COLO 205 colon, 3.95 µM; with OVCAR-8 ovarian, 31.3 µM; in the experiment on M14 melanoma it was 27 µM. Further, the TGI in the experiment on HT29 colon is 63.5 µM; with HOP-92 NSCLC, 36.8 µM; in the experiment with HCT-15 colon it was 14.1 µM.
Turning to `Oc1ccc(CCc2cc(O)cc(O)c2)cc1`, the total growth inhibition concentration (TGI) in the experiment with SK-MEL-2 melanoma, in the experiment on RPMI-8226 leukemia, with 786-0 renal, with COLO 205 colon, in the experiment with SR leukemia and in the experiment on OVCAR-8 ovarian was greater than 100 µM each time. Moreover, the TGI in the experiment on M14 melanoma, with HT29 colon, with HOP-92 NSCLC and in the experiment on HCT-15 colon was greater than 100 µM in each case.
Turning to `S=C(S)NCC1CCC(CNC(=S)S)CC1` (stereo not drawn), the TGI is 81.4 µM in the experiment with MDA-N; 58.3 µM with SK-MEL-2 melanoma; greater than 100 µM with RPMI-8226 leukemia; 18.6 µM in the experiment on 786-0 renal; greater than 100 µM with COLO 205 colon; 47.9 µM with OVCAR-8 ovarian. The TGI was greater than 100 µM with M14 melanoma, 42.3 µM in the experiment with HT29 colon and 65 µM in the experiment with HCT-15 colon.
Take `Cc1ccc(N=Nc2c(C)c(C#N)c(=S)n(C3OC(CO)C(O)C(O)C3O)c2-c2ccccc2)cc1` (stereo not drawn): the TGI in the experiment with MDA-N is 71.7 µM; in the experiment with SK-MEL-2 melanoma, 45.6 µM; in the experiment on RPMI-8226 leukemia, greater than 100 µM; with 786-0 renal it was 49.8 µM; in the experiment with COLO 205 colon, 57.4 µM; in the experiment with M14 melanoma, 30.4 µM. Further, the results for the TGI with HT29 colon and in the experiment with HCT-15 colon were 89.2 µM and 63.7 µM, respectively.
Regarding `COc1ccc(OC)c2c1C1CCC(=O)N1CN2C(C)=O` (stereo not drawn), the TGI with MDA-N, in the experiment with SK-MEL-2 melanoma, in the experiment with RPMI-8226 leukemia, in the experiment on 786-0 renal, in the experiment with COLO 205 colon and in the experiment with OVCAR-8 ovarian was greater than 100 µM throughout. Also, the TGI in the experiment on M14 melanoma, in the experiment with HT29 colon, with HOP-92 NSCLC and with HCT-15 colon was greater than 100 µM throughout.
